Key:
[1] = test system: cHPK1 (87 amino acids of the C-terminal part of HPK1) displayed on phage; assay: Surface plasmon resonance analysis (BIACORE), HIS-tagged Ig-tail peptides on NTA sensor chip, cHPK1 phagemids injected; format: binding, murine; conditions: for decrease of binding capacity / relative binding affinity for cHPK1 compared to the wild type IgE tail: after the elution step, IgE measurement set to 100%; for Elution after 100 s, Relative RUs: binding of cHPK1 phage (10^9 cfu in TBS) to immobilised HIS-tagged Ig-tail, value remaining after 100 s of elution; for Injection after 60 s, Relative RUs: binding of cHPK1 phage (10^9 cfu in TBS, injected 60 s) to immobilised HIS-tagged Ig-tail, 400 (±25) RUs peptide coupled, value taken 60 s after injection; for Elution after 100 s, %: relative RUs after 100 s elution, IgE values were set to 100%
Text: Phage Display Based Cloning of Proteins Interacting with the Cytoplasmic Tail of Membrane Immunoglobulins* ROLAND GEISBERGERa , MARTIN PRLICa , GERTRUDE ACHATZ-STRAUSSBERGERa , IRIS OBERNDORFERa , ELKE LUGERb , MARINUS LAMERSc , RETO CRAMERId , ULRICH APPENZELLERd , JURGEN WIENANDSe , MICHAEL BREITENBACHa , FATIMA FERREIRAa and GERNOT ACHATZa, a Department of Genetics and General Biology, Hellbrunnerstrae 34, A-5020 Salzburg, Austria; b DRFZ, Schumannstrasse 21/22, D-10117, Germany; c MPI for Immunobiology, Stubeweg 51, D-79108 Freiburg, Germany; d SIAF, Obere Strasse 22, CH-7270 Davos, Switzerland; e Department of Biochemistry I, Universitaetsstrasse 25, D-33615 Bielefeld, Germany. The reduced quantity and quality of serum immunoglobulins (sIgs) in mutant mice expressing truncated cytoplasmic tails of IgE and IgG1 indicate an active role for the cytoplasmic domains of mIgG1 and mIgE. We used phage display technology to identify candidate proteins able to interact with the cytoplasmic tail of mIgE. […] The interaction of HPK1 with the cytoplasmic domains of membrane immunoglobulins indicate an active role of the tails as part of an isotype specific signal transduction, independent from the Iga/Igb heterodimers, and may represent a missing link to upstream regulatory elements of HPK1 activation. Keywords: Antigen receptor; Cytoplasmic tail; HPK1; Phage display; Surface plasmon resonance INTRODUCTION The B cell antigen receptor (Vitetta et al., 1980; Reth, 1992) plays a central role in almost all processes along the developmental pathway of B cells, i.e. the generation, maturation, survival and activation of B cells. B cell antigen receptors (BCR) exist as a complex of membrane immunoglobulins (mIgs) and at least two other transmem- brane polypeptides, called Ig-a and Ig-b, which connect the antigen receptor to the tyrosine phosphorylation pathways in the cell. In this complex, mIgs serve as isotype specific antigen receptors on the surface of B lymphocytes. All isotypes of mIgs can form a complex with Ig-a and Ig-b (Venkitaraman et al., 1991) indicating an involvement of all isotypes in the signal transduction pathway. The earliest detectable biochemical event that follows BCR-aggregation is increased activity of protein tyrosine kinases (PTKs) of the Syk- and Src-family, which phosphorylate distinct tyrosine residues within conserved sequences present on the cytoplasmic portions of Ig-a and Ig-b (Reth, 1992). Phosphorylation of Ig-a and Ig-b occurs on the tyrosine residues of immuno receptor tyrosine-based activation motif (ITAM) and on the non-ITAM tyrosine 204 of Ig-a (Engels et al., 2001). Once phosphorylated, ITAMs provide binding sites for SRC homology 2 (SH2) domains of the Src and Syk PTKs and the adaptor protein SLP-65 (Engels et al., 2001), thus initiating several signaling pathways, the most important of which are the PLC-g, the Ras and the PI3-kinase pathways (Reth and Wienands, 1997; Kurosaki, 1999). Various external stimuli such as cytokine binding, interaction with other cells as well as stress factors including osmotic shock, heat or ionizing irradiation can influence the signaling cascade initiated by BCR engagement and they can contribute to differential alteration of the pattern of gene expression. Obviously, between Ig subclasses, there should be no differences in the transduction of signals regulating the central features of the immune system (Nussenzweig, 1997) such as the control of allelic exclusion, early cellular transitions and in the function of the membrane- bound immunoglobulin as a receptor for antigen capture ISSN 1044-6672 print q 2002 Taylor & Francis Ltd DOI: 10.1080/1044667031000137584 *Presented at the Proceedings of the 4th Germinal Center Conference, Groningen, The Netherlands, June 2002. Corresponding author. Address: Institut fur Genetik, Hellbrunnerstrae 34, A-5020 Salzburg, Austria. Tel.: 43-662-8044-5764. Fax: 43-662- 8044-144. […]

[2] = test system: cHPK1 (87 amino acids of the C-terminal part of HPK1) displayed on phage; assay: Surface plasmon resonance analysis (BIACORE), IgE tail peptide covalently coupled to CM5 sensor chip, cHPK1 phagemids injected; format: binding, murine; conditions: CM5 sensor chip with covalently coupled IgE tail peptide (1683 RUs), random peptide as reference channel; 1 x 10^9 cHPK1 displaying phages injected over 200 s, washing with TBS
Text: Phage Display Based Cloning of Proteins Interacting with the Cytoplasmic Tail of Membrane Immunoglobulins* ROLAND GEISBERGERa , MARTIN PRLICa , GERTRUDE ACHATZ-STRAUSSBERGERa , IRIS OBERNDORFERa , ELKE LUGERb , MARINUS LAMERSc , RETO CRAMERId , ULRICH APPENZELLERd , JURGEN WIENANDSe , MICHAEL BREITENBACHa , FATIMA FERREIRAa and GERNOT ACHATZa, a Department of Genetics and General Biology, Hellbrunnerstrae 34, A-5020 Salzburg, Austria; b DRFZ, Schumannstrasse 21/22, D-10117, Germany; c MPI for Immunobiology, Stubeweg 51, D-79108 Freiburg, Germany; d SIAF, Obere Strasse 22, CH-7270 Davos, Switzerland; e Department of Biochemistry I, Universitaetsstrasse 25, D-33615 Bielefeld, Germany. The reduced quantity and quality of serum immunoglobulins (sIgs) in mutant mice expressing truncated cytoplasmic tails of IgE and IgG1 indicate an active role for the cytoplasmic domains of mIgG1 and mIgE. We used phage display technology to identify candidate proteins able to interact with the cytoplasmic tail of mIgE. […] The interaction of HPK1 with the cytoplasmic domains of membrane immunoglobulins indicate an active role of the tails as part of an isotype specific signal transduction, independent from the Iga/Igb heterodimers, and may represent a missing link to upstream regulatory elements of HPK1 activation. […]

[3] = biological target: HIS-tagged cytoplasmic tail of membrane IgE (28 amino acids) (mouse); assay: SPR; BIACORE CM5 chip; IgE-tail peptide covalently coupled to Fc1 (1683 RUs), random peptide (1704 RUs) on Fc2 as reference; 1 x 10^9 cfu phagemids in TBS injected, then washing with TBS; relative response
[4] = biological target: HIS-tag deficient random peptide; assay: SPR; BIACORE NTA sensor chip; HIS-tagged Ig-tail peptides (150 nM in 0.01 M Hepes, 0.15 M NaCl, 50 mM EDTA, 0.005% surfactant P20) captured via the HIS-tag, 400 (+/-25) RUs each; 10^9 cfu cHPK1 phage in TBS injected 1 min, 100 s elution; relative RUs, IgE set to 100%
[5] = biological target: HIS-tagged cytoplasmic tail of IgG1 (mouse); assay: as above
[6] = biological target: HIS-tagged cytoplasmic tail of IgG2a; assay: as above
[7] = biological target: HIS-tagged cytoplasmic tail of IgG2b; assay: as above
[8] = biological target: HIS-tagged cytoplasmic tail of IgG3; assay: as above
[9] = biological target: HIS-tagged cytoplasmic tail of IgM (KVK); assay: as above
[10] = biological target: HIS-tagged cytoplasmic tail of membrane IgE (28 amino acids) (mouse); assay: as above
[11] = biological target: HIS-tagged modified IgE cytoplasmic tail lacking the four amino acids T-F-Q-D (IgEDTFQD) (mouse); assay: as above

Substance	decrease of binding capacity / relative binding affinity for cHPK1 compared to the wild type IgE tail [1]	Elution after 100 s, Relative RUs [1]	Injection after 60 s, Relative RUs [1]	Elution after 100 s, % [1]	also measured
(6 H) KVKWIFSSVVELKQKISPDYRNMI- GQGA [IgG2b, HIS-tagged synthetic cytoplasmic tail of IgG2b]	about 60%	72 RUs	276 RUs	41%	
(6 H) KVKWIFSSVVELKQTISPDYRNMI- GQGA [IgG2a, HIS-tagged synthetic cytoplasmic tail of IgG2a]	about 60%	68 RUs	284 RUs	38%	
(6 H) KVKWIFSSVVELKQTLVPEYKNMI- GQAP [IgG1, HIS-tagged synthetic cytoplasmic tail of IgG1]		128 RUs	819 RUs	72%	
(6 H) KVKWIFSSVVQVKQTAIPDYRNMI- GQGA [IgG3, HIS-tagged synthetic cytoplasmic tail of IgG3]		120 RUs	744 RUs	67%	
(6 H) KVKWVFSTPMQDTPQYA- NILQTRA [IgEDTFQD, HIS-tagged IgE cytoplasmic tail peptide lacking the TFQD amino acids]	47%	94 RUs	563 RUs	53%	
HHHHHHKVKWVFSTPMQDTPQTFQDYA- NILQTRA [IgE, HIS-tagged synthetic peptide of the 28 amino acid long cytoplasmic tail of mIgE]		177 RUs	691 RUs		relative increase in affinity after the elution step [2]: 500 RUs
SPHRCRIHPRPSKTMPTSSRPGH- RCDASTH [Random peptide, HIS-tag deficient random peptide used as control, reference compound]		~0 RUs	310 RUs	~0%	
cHPK1, 87 amino acids of the C-terminal part of murine hematopoietic progenitor kinase 1 (HPK1), displayed on phage (domain or fragment)					relative RUs after the elution step [3]: 500 RUs; relative RUs 60 s after injection [4]: 310 RU; % of the IgE tail's RUs after elution [5]: 72%; relative RUs 60 s after injection [5]: 819 RU; relative RUs 100 s after elution [5]: 128 RU; % of the IgE tail's RUs after elution [6]: 38%; relative RUs 60 s after injection [6]: 284 RU; relative RUs 100 s after elution [6]: 68 RU; % of the IgE tail's RUs after elution [7]: 41%; relative RUs 60 s after injection [7]: 276 RU; relative RUs 100 s after elution [7]: 72 RU; % of the IgE tail's RUs after elution [8]: 67%; relative RUs 60 s after injection [8]: 744 RU; relative RUs 100 s after elution [8]: 120 RU; relative RUs 60 s after injection [9]: 617 RU; relative RUs 60 s after injection [10]: 691 RU; relative RUs 100 s after elution [10]: 177 RU; % of the IgE tail's RUs after elution [11]: 53%; relative RUs 60 s after injection [11]: 563 RU; relative RUs 100 s after elution [11]: 94 RU
